Where “and” joins values, the source holds several entries; their conditions need not be identical. Equal values may be shown once. Calls of active or inactive are those of the source. No rule for the calls is given here.
System: rodent lifetime carcinogenesis bioassay, tumor incidence TD50
Experiment: chronic cancer bioassays in animals – CPDB, compiled studies (AID 1745844)
Conditions: in feed

ClC1=C(Cl)[C@]2(Cl)[C@@H]3[C@@H]4C[C@@H]([C@H]5O[C@@H]45)[C@@H]3[C@@]1(Cl)C2(Cl)Cl
TD50 (mouse, strain CF-1, females, site: lung, lesion: carcinoma, dosed 122 weeks, study length 138 weeks): 1.78 mg/kg/day (inactive) | carcinogen call (mouse, strain CF-1, females, site: lung, lesion: carcinoma, dosed 128 weeks, study length 128 weeks): negative (inactive) | carcinogen call (mouse, strain CF-1, females, site: lung, lesion: one or several types, types not named, dosed 110 weeks, study length 110 weeks): negative (inactive) | TD50 (mouse, strain CF-1, males, site: liver, lesion: liver-cell tumor, type B, dosed 110 weeks, study length 124 weeks): 4.02 mg/kg/day | TD50 (mouse, strain CF-1, males, site: liver, lesion: liver-cell tumor, type B, dosed 112 weeks, study length 128 weeks): 4.66 mg/kg/day | TD50 (mouse, strain CF-1, males, site: liver, lesion: liver-cell tumor, type B, dosed 120 weeks, study length 134 weeks): 1.68 mg/kg/day | TD50 (mouse, strain CF-1, males, site: liver, lesion: liver-cell tumor, type B, dosed 128 weeks, study length 128 weeks): 5.12 mg/kg/day and 6.58 mg/kg/day | TD50 (mouse, strain CF-1, males, site: liver, lesion: liver-cell tumor, dosed 110 weeks, study length 110 weeks): 1.28 mg/kg/day | carcinogen call (mouse, strain CF-1, males, site: liver, lesion: several types, types named in the paper, dosed 110 weeks, study length 110 weeks): positive | TD50 (mouse, strain CF-1, males, site: liver, lesion: several types, types named in the paper, dosed 110 weeks, study length 124 weeks): 0.713 mg/kg/day | TD50 (mouse, strain CF-1, males, site: liver, lesion: several types, types named in the paper, dosed 112 weeks, study length 128 weeks): 1.12 mg/kg/day | TD50 (mouse, strain CF-1, males, site: liver, lesion: several types, types named in the paper, dosed 120 weeks, study length 134 weeks): 0.547 mg/kg/day | TD50 (mouse, strain CF-1, males, site: liver, lesion: several types, types named in the paper, dosed 128 weeks, study length 128 weeks): 0.913 mg/kg/day and 1.91 mg/kg/day | carcinogen call (mouse, strain CF-1, males, site: lung, lesion: adenoma, dosed 110 weeks, study length 124 weeks): negative (inactive) | carcinogen call (mouse, strain CF-1, males, site: lung, lesion: adenoma, dosed 112 weeks, study length 128 weeks): negative (inactive) | TD50 (mouse, strain CF-1, males, site: lung, lesion: adenoma, dosed 120 weeks, study length 134 weeks): 2.13 mg/kg/day (inactive) | carcinogen call (mouse, strain CF-1, males, site: lung, lesion: adenoma, dosed 128 weeks, study length 128 weeks): negative (inactive) | carcinogen call (mouse, strain CF-1, males, site: lung, lesion: carcinoma, dosed 110 weeks, study length 124 weeks): negative (inactive) | carcinogen call (mouse, strain CF-1, males, site: lung, lesion: carcinoma, dosed 112 weeks, study length 128 weeks): negative (inactive) | TD50 (mouse, strain CF-1, males, site: lung, lesion: carcinoma, dosed 120 weeks, study length 134 weeks): 3.71 mg/kg/day (inactive) | carcinogen call (mouse, strain CF-1, males, site: lung, lesion: carcinoma, dosed 128 weeks, study length 128 weeks): negative (inactive) | carcinogen call (mouse, strain CF-1, males, site: lung, lesion: one or several types, types not named, dosed 110 weeks, study length 110 weeks): negative (inactive) | carcinogen call (rat, strain CFE, females, site: any site (literature study), lesion: several types, types named in the paper, dosed 104 weeks, study length 104 weeks): negative (inactive) | TD50 (rat, strain CFE, males, site: any site (literature study), lesion: several types, types named in the paper, dosed 104 weeks, study length 104 weeks): 2.01 mg/kg/day (inactive) | TD50 (rat, strain Fischer 344, females, site: any site (literature study), lesion: several types, types named in the paper, dosed 105 weeks, study length 104 weeks): 489 mg/kg/day (inactive) | TD50 (rat, strain Fischer 344, males, site: any site (literature study), lesion: several types, types named in the paper, dosed 105 weeks, study length 104 weeks): 7.28 mg/kg/day (inactive) | TD50 (rat, strain Not specified, females, site: any site (literature study), lesion: one or several types, types not named, dosed 104 weeks, study length 104 weeks): 57.2 mg/kg/day (inactive) | TD50 (rat, strain Not specified, males, site: any site (literature study), lesion: one or several types, types not named, dosed 104 weeks, study length 104 weeks): 40.5 mg/kg/day (inactive) | carcinogen call (rat, strain Osborne-Mendel, both sexes, site: any site (literature study), lesion: several types, types named in the paper, dosed 104 weeks, study length 104 weeks): positive | TD50 (rat, strain Osborne-Mendel, females, site: adrenal gland, lesion: cortical adenoma + cortical carcinoma, dosed 90 weeks, study length 109 weeks): 4.42 mg/kg/day (inactive) | carcinogen call (rat, strain Osborne-Mendel, females, site: any site (literature study), lesion: several types, types named in the paper, dosed 90 weeks, study length 110 weeks): negative (inactive) | carcinogen call (rat, strain Osborne-Mendel, females, site: any site (literature study), lesion: several types, types named in the paper, dosed 121 weeks, study length 126 weeks): negative (inactive) | TD50 (rat, strain Osborne-Mendel, females, site: liver, lesion: hepatocellular adenoma + hepatocellular carcinoma + neoplastic nodule, dosed 90 weeks, study length 110 weeks): 38.4 mg/kg/day | carcinogen call (rat, strain Osborne-Mendel, females, site: liver, lesion: one or several types, types not named, dosed 121 weeks, study length 126 weeks): negative (inactive) | TD50 (rat, strain Osborne-Mendel, males, site: any site (literature study), lesion: several types, types named in the paper, dosed 90 weeks, study length 110 weeks): 3.34 mg/kg/day (inactive) | carcinogen call (rat, strain Osborne-Mendel, males, site: any site (literature study), lesion: several types, types named in the paper, dosed 126 weeks, study length 126 weeks): negative (inactive) | carcinogen call (rat, strain Osborne-Mendel, males, site: liver, lesion: hemangioma, dosed 126 weeks, study length 126 weeks): negative (inactive)
